Data: publication PMC9090415, “Discovery of small molecule inhibitors of Plasmodium falciparum apicoplast DNA polymerase” (Journal of Enzyme Inhibition and Medicinal Chemistry, 2022)

Target: P. falciparum apicoplast DNA polymerase (Pf-apPOL) (Plasmodium falciparum, UniProt Q8ILY1)
Test: Fluorescence-based high-throughput DNA polymerase assay (molecular beacon), primary screen and dose-response;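 on % inhibition Apol 40': compound concentration given in µM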
Assay type: biochemical
Details: for DNA Pol: 90 min, 10 µM
Method: The HT assay employs a molecular beacon, a stem-loop DNA template with a Cy3 dye and the Black Hole Quencher on the 3′ and 5′ ends of the DNA, respectively. Pf-apPOL concentration is based on a calculated absorptivity of ε280 = 56750 M^−1 cm^−1. Reactions were carried out at 25 °C, using Corning 3575 […] (well-volume, 20 µL). Assays testing for compound inhibition composed of reaction buffer (pH 7.9 in 50 mM potassium acetate, 20 mM Tris-acetate and 10 mM magnesium acetate), Pf-apPOL (20 nM), DNA substrate (20 nM), dNTPs (6 µM), and compound (10 µM in DMSO). The DNA and nucleotide substrates (dNTPs) were at concentrations of 20 nM and 6 µM, respectively, in the assay. Pf-apPOL was incubated in the reaction buffer with dNTPs and the compound of interest (10 µM, in the assay) at 25 °C for 10 min. The DNA substrate was then added and the reaction was allowed to proceed for 90 min at 25 °C.
Each assay plate contained 16 negative controls (no Pf-apPOL, DMSO present) and 16 positive controls (Pf-apPOL present, no DMSO). The fluorescence of each well was determined using a BioTek Synergy Neo fluorescence plate reader using excitation and emission wavelengths of 555 and 570 nm, respectively.
In the above, Min is the average of fluorescence emission of the negative controls (substrate only), Max the average fluorescence emission from the positive controls (enzyme + substrate), and Test the emission from the assays in the presence of compounds (enzyme + compound + substrates). […] […] The IC50 of each compound was determined using Equation (2): (2) IC50= Vmax/(1+ (I/IC50)^n)
In the above, n measures cooperativity, with n > 1 indicating synergistic binding of more than a single molecule of the compound.
To identify apPOL inhibitors we utilised our previously developed high-throughput DNA polymerase assay. The HT assay is based on a molecular beacon DNA template that forms a stem-loop with a Cy3 dye and the Black Hole Quencher on the 3′ and 5′ ends of the DNA, respectively. DNA polymerase activity extends an annealed primer through the stem region, displacing the fluorophore from the quencher, thereby increasing its fluorescence (Figure 1(A)). The assay accurately recapitulates the kinetic behaviour of apPOL, as measured through more conventional low-throughput gel-based assays. The Z′ factor for the assay described here was 0.9 across all plates (data not shown).
Figure 1. High-throughput screening. (A) The fluorescent-based DNA polymerase assay used to screen the compound libraries. The DNA template strand is a hairpin loop with a primer annealed to the loop. The 3’ end of the primer is 11 bases away from the 6 bp duplex. Strand displacement activity of the DNA polymerase separates the Cy3 dye from the Black hole quencher leading to an increase in fluorescent signal. (B) The high-throughput assay workflow. The DNA polymerase is incubated with […] compound for 10 min prior to addition of the hairpin substrate. The reaction is quenched at 3 different time points and the fluorescent signal is measured and % inhibition is determined using the provided equation.

[1] = 'DNA Pol' of the 186 hits list (screen value)
[2] = primary screen value, "DNA Pol"

P. falciparum apicoplast DNA polymerase (Pf-apPOL), sequence (Q8ILY1 entry or part of it): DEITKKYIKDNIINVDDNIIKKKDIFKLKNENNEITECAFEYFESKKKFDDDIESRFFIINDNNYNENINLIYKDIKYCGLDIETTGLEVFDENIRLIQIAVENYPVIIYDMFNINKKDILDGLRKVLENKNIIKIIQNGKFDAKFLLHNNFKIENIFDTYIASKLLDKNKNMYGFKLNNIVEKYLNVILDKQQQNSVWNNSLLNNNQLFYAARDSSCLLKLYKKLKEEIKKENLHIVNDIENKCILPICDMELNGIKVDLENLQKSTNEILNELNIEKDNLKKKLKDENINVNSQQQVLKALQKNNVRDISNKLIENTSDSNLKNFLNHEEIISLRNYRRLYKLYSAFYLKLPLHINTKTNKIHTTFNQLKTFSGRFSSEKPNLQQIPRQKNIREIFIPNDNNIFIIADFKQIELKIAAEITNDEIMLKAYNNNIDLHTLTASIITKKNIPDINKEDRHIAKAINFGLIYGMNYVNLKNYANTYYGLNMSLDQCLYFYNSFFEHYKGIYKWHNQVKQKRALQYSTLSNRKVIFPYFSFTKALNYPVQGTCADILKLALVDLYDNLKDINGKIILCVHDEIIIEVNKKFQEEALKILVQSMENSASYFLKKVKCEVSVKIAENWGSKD

SMILES: Cc1cccc(NC(=O)Cn2ccc3c(=O)[nH]ccc32)c1C [Molecule 11, O=C(Cn1ccc2c1cc[nH]c2=O)Nc1cccc(c1C)C]
- DNA Pol [1]: 54
- % inhibition Apo pol 10' (DRC-1, conc 2.5): 3.616%
- % inhibition Apo pol 10' (DRC-1, conc 5): 26.2157%
- % inhibition Apo pol 10' (DRC-1, conc 10): 64.035%
- % inhibition Apo pol 10' (DRC-1, conc 20): 84.2642%
- % inhibition Apo pol 10' (DRC-1, conc 40): 89.6589%
- % inhibition Apo pol 10' (DRC-1, conc 80): 84.1772%
- % inhibition Apol 90' (DRC-1, conc 2.5): 0.4643%
- % inhibition Apol 90' (DRC-1, conc 5): 14.6206%
- % inhibition Apol 90' (DRC-1, conc 10): 51.1257%
- % inhibition Apol 90' (DRC-1, conc 20): 80.5216%
- % inhibition Apol 90' (DRC-1, conc 40): 91.1147%
- % inhibition Apol 90' (DRC-1, conc 80): 90.9413%
- % inhibition apPOL 180' (DRC-1, conc 2.5): -2.306%
- % inhibition apPOL 180' (DRC-1, conc 5): 3.486%
- % inhibition apPOL 180' (DRC-1, conc 10): 34.4928%
- % inhibition apPOL 180' (DRC-1, conc 20): 70.7317%
- % inhibition apPOL 180' (DRC-1, conc 40): 89.3869%
- % inhibition apPOL 180' (DRC-1, conc 80): 93.0322%
- % inhibition Apo pol 5' (DRC-2, conc 2.5): 1.64%
- % inhibition Apo pol 5' (DRC-2, conc 5): 23%
- % inhibition Apo pol 5' (DRC-2, conc 10): 46%
- % inhibition Apo pol 5' (DRC-2, conc 20): 49%
- % inhibition Apo pol 5' (DRC-2, conc 40): 47%
- % inhibition Apo pol 5' (DRC-2, conc 80): 39%
- % inhibition Apol 40' (DRC-2, conc 2.5): 0.556%
- % inhibition Apol 40' (DRC-2, conc 5): 28%
- % inhibition Apol 40' (DRC-2, conc 10): 58%
- % inhibition Apol 40' (DRC-2, conc 20): 67%
- % inhibition Apol 40' (DRC-2, conc 40): 69%
- % inhibition Apol 40' (DRC-2, conc 80): 66%
- % inhibition Apol 40' (DRC-2, concentration 10): 58%
- % inhibition Apol 40' (DRC-2, concentration 40): 69%
- % inhibition ApPOL 90' (DRC-2, conc 2.5): -1.29%
- % inhibition ApPOL 90' (DRC-2, conc 5): 24%
- % inhibition ApPOL 90' (DRC-2, conc 10): 58%
- % inhibition ApPOL 90' (DRC-2, conc 20): 70%
- % inhibition ApPOL 90' (DRC-2, conc 40): 73%
- % inhibition ApPOL 90' (DRC-2, conc 80): 72%
- % inhibition ApPOL 90' (DRC-2, concentration 10): 58%
- % inhibition apPOL 180' (DRC-2, conc 2.5): -8%
- % inhibition apPOL 180' (DRC-2, conc 5): 13%
- % inhibition apPOL 180' (DRC-2, conc 10): 50%
- % inhibition apPOL 180' (DRC-2, conc 20): 69%
- % inhibition apPOL 180' (DRC-2, conc 40): 77%
- % inhibition apPOL 180' (DRC-2, conc 80): 77%
- % inhibition apPOL 180' (DRC-2, concentration 20): 69%
- % inhibition apPOL 180' (DRC-2, concentration 40): 77%
- % inhibition apPOL 180' (DRC-2, concentration 80): 77%
- DNA Pol [2]: 54

SMILES: Cc1ccc(NC(=O)Cn2ccc3c(=O)[nH]ccc32)c(C)c1 [KU0205125]
- DNA Pol [1]: 21
- % inhibition Apo pol 10' (DRC-1, conc 2.5): 10.1191%
- % inhibition Apo pol 10' (DRC-1, conc 5): 18.1282%
- % inhibition Apo pol 10' (DRC-1, conc 10): 33.277%
- % inhibition Apo pol 10' (DRC-1, conc 20): 57.4285%
- % inhibition Apo pol 10' (DRC-1, conc 40): 86.5673%
- % inhibition Apo pol 10' (DRC-1, conc 80): 93.6236%
- % inhibition Apol 90' (DRC-1, conc 2.5): 1.128%
- % inhibition Apol 90' (DRC-1, conc 5): 2.856%
- % inhibition Apol 90' (DRC-1, conc 10): 16.2688%
- % inhibition Apol 90' (DRC-1, conc 20): 36.6738%
- % inhibition Apol 90' (DRC-1, conc 40): 74.6586%
- % inhibition Apol 90' (DRC-1, conc 80): 93.7132%
- % inhibition apPOL 180' (DRC-1, conc 2.5): -4.92%
- % inhibition apPOL 180' (DRC-1, conc 5): -5.3418%
- % inhibition apPOL 180' (DRC-1, conc 10): 4.52%
- % inhibition apPOL 180' (DRC-1, conc 20): 18.6019%
- % inhibition apPOL 180' (DRC-1, conc 40): 59.9504%
- % inhibition apPOL 180' (DRC-1, conc 80): 92.9849%
- % inhibition Apo pol 5' (DRC-2, conc 2.5): -2.19%
- % inhibition Apo pol 5' (DRC-2, conc 5): 1.9%
- % inhibition Apo pol 5' (DRC-2, conc 10): 23%
- % inhibition Apo pol 5' (DRC-2, conc 20): 44%
- % inhibition Apo pol 5' (DRC-2, conc 40): 52%
- % inhibition Apo pol 5' (DRC-2, conc 80): 50%
- % inhibition Apo pol 5' (DRC-2, concentration 20): 44%
- % inhibition Apol 40' (DRC-2, conc 2.5): -3.78%
- % inhibition Apol 40' (DRC-2, conc 5): -0.571%
- % inhibition Apol 40' (DRC-2, conc 10): 20%
- % inhibition Apol 40' (DRC-2, conc 20): 48%
- % inhibition Apol 40' (DRC-2, conc 40): 70%
- % inhibition Apol 40' (DRC-2, conc 80): 73%
- % inhibition ApPOL 90' (DRC-2, conc 2.5): -5%
- % inhibition ApPOL 90' (DRC-2, conc 5): -4%
- % inhibition ApPOL 90' (DRC-2, conc 10): 15%
- % inhibition ApPOL 90' (DRC-2, conc 20): 44%
- % inhibition ApPOL 90' (DRC-2, conc 40): 71%
- % inhibition ApPOL 90' (DRC-2, conc 80): 78%
- % inhibition ApPOL 90' (DRC-2, concentration 20): 44%
- % inhibition apPOL 180' (DRC-2, conc 2.5): -10%
- % inhibition apPOL 180' (DRC-2, conc 5): -11%
- % inhibition apPOL 180' (DRC-2, conc 10): 3%
- % inhibition apPOL 180' (DRC-2, conc 20): 30%
- % inhibition apPOL 180' (DRC-2, conc 40): 69%
- % inhibition apPOL 180' (DRC-2, conc 80): 82%
- DNA Pol [2]: 21
